Test results published in PMC8401933 (Molecules, 2021).

Tests used:
FRK = target: T1, FRK (Homo sapiens, UniProt P42685); test: KINOMEscan binding; settings: read-out: Percent Control
T1 construct: purchased Eurofins DiscoverX KINOMEscan

MEK6 = target: T2, MEK6 (Homo sapiens, UniProt P52564); test: KINOMEscan binding; settings: read-out: Percent Control
T2 construct: purchased Eurofins DiscoverX KINOMEscan

GRK3 = target: T3, GRK3 (Homo sapiens, UniProt P35626); test: KINOMEscan binding; settings: read-out: Percent Control
T3 construct: purchased Eurofins DiscoverX KINOMEscan

PAK2 = target: T4, PAK2 (Homo sapiens, UniProt Q13177); test: KINOMEscan binding; settings: read-out: Percent Control
T4 construct: purchased Eurofins DiscoverX KINOMEscan

DMPK2 = target: T5, DMPK2 (Homo sapiens, UniProt Q6DT37); test: KINOMEscan binding; settings: read-out: Percent Control
T5 construct: purchased Eurofins DiscoverX KINOMEscan

LOK = target: T6, LOK (Homo sapiens, UniProt O94804); test: KINOMEscan binding; settings: read-out: Percent Control
T6 construct: purchased Eurofins DiscoverX KINOMEscan

SGK = target: T7, SGK (Homo sapiens, UniProt O00141); test: KINOMEscan binding; settings: read-out: Percent Control
T7 construct: purchased Eurofins DiscoverX KINOMEscan

SRMS = target: T8, SRMS (Homo sapiens, UniProt Q9H3Y6); test: KINOMEscan binding; settings: read-out: Percent Control
T8 construct: purchased Eurofins DiscoverX KINOMEscan

[1] = target: T9, ABL1(Q252H)-nonphosphorylated (Homo sapiens, UniProt P00519, Q252H); test: KINOMEscan binding; settings: read-out: Percent Control
T9 construct: purchased Eurofins DiscoverX KINOMEscan

BRK = target: T10, BRK (Homo sapiens, UniProt Q13882); test: KINOMEscan binding; settings: read-out: Percent Control
T10 construct: purchased Eurofins DiscoverX KINOMEscan

PIM1 = target: T11, PIM1 (Homo sapiens, UniProt P11309); test: KINOMEscan binding; settings: read-out: Percent Control
T11 construct: purchased Eurofins DiscoverX KINOMEscan

HIPK2 = target: T12, HIPK2 (Homo sapiens, UniProt Q9H2X6); test: KINOMEscan binding; settings: read-out: Percent Control
T12 construct: purchased Eurofins DiscoverX KINOMEscan

WNK4 = target: T13, WNK4 (Homo sapiens, UniProt Q96J92); test: KINOMEscan binding; settings: read-out: Percent Control
T13 construct: purchased Eurofins DiscoverX KINOMEscan

PAK7 = target: T14, PAK7 (Homo sapiens, UniProt Q9P286); test: KINOMEscan binding; settings: read-out: Percent Control
T14 construct: purchased Eurofins DiscoverX KINOMEscan

ERK5 = target: T15, ERK5 (Homo sapiens, UniProt Q13164); test: KINOMEscan binding; settings: read-out: Percent Control
T15 construct: purchased Eurofins DiscoverX KINOMEscan

FGFR1 = target: T16, FGFR1 (Homo sapiens, UniProt P11362); test: KINOMEscan binding; settings: read-out: Percent Control
T16 construct: purchased Eurofins DiscoverX KINOMEscan

TNIK = target: T17, TNIK (Homo sapiens, UniProt Q9UKE5); test: KINOMEscan binding; settings: read-out: Percent Control
T17 construct: purchased Eurofins DiscoverX KINOMEscan

NEK1 = target: T18, NEK1 (Homo sapiens, UniProt Q96PY6); test: KINOMEscan binding; settings: read-out: Percent Control
T18 construct: purchased Eurofins DiscoverX KINOMEscan

FLT3(D835H) = target: T19, FLT3(D835H) (Homo sapiens, UniProt P36888, D835H); test: KINOMEscan binding; settings: read-out: Percent Control
T19 construct: purchased Eurofins DiscoverX KINOMEscan

ACVRL1 = target: T20, ACVRL1 (Homo sapiens, UniProt P37023); test: KINOMEscan binding; settings: read-out: Percent Control
T20 construct: purchased Eurofins DiscoverX KINOMEscan

PLK3 = target: T21, PLK3 (Homo sapiens, UniProt Q9H4B4); test: KINOMEscan binding; settings: read-out: Percent Control
T21 construct: purchased Eurofins DiscoverX KINOMEscan

DDR1 = target: T22, DDR1 (Homo sapiens, UniProt Q08345); test: KINOMEscan binding; settings: read-out: Percent Control
T22 construct: purchased Eurofins DiscoverX KINOMEscan

MAPKAPK2 = target: T23, MAPKAPK2 (Homo sapiens, UniProt P49137); test: KINOMEscan binding; settings: read-out: Percent Control
T23 construct: purchased Eurofins DiscoverX KINOMEscan

CASK = target: T24, CASK (Homo sapiens, UniProt O14936); test: KINOMEscan binding; settings: read-out: Percent Control
T24 construct: purchased Eurofins DiscoverX KINOMEscan

ZAK = target: T25, ZAK (Homo sapiens, UniProt Q9NYL2); test: KINOMEscan binding; settings: read-out: Percent Control
T25 construct: purchased Eurofins DiscoverX KINOMEscan

NEK2 = target: T26, NEK2 (Homo sapiens, UniProt P51955); test: KINOMEscan binding; settings: read-out: Percent Control
T26 construct: purchased Eurofins DiscoverX KINOMEscan

BRAF(V600E) = target: T27, BRAF(V600E) (Homo sapiens, UniProt P15056, V600E); test: KINOMEscan binding; settings: read-out: Percent Control
T27 construct: purchased Eurofins DiscoverX KINOMEscan

BMPR2 = target: T28, BMPR2 (Homo sapiens, UniProt Q13873); test: KINOMEscan binding; settings: read-out: Percent Control
T28 construct: purchased Eurofins DiscoverX KINOMEscan

PRKD3 = target: T29, PRKD3 (Homo sapiens, UniProt O94806); test: KINOMEscan binding; settings: read-out: Percent Control
T29 construct: purchased Eurofins DiscoverX KINOMEscan

PHKG1 = target: T30, PHKG1 (Homo sapiens, UniProt Q16816); test: KINOMEscan binding; settings: read-out: Percent Control
T30 construct: purchased Eurofins DiscoverX KINOMEscan

NEK4 = target: T31, NEK4 (Homo sapiens, UniProt P51957); test: KINOMEscan binding; settings: read-out: Percent Control
T31 construct: purchased Eurofins DiscoverX KINOMEscan

TSSK3 = target: T32, TSSK3 (Homo sapiens, UniProt Q96PN8); test: KINOMEscan binding; settings: read-out: Percent Control
T32 construct: purchased Eurofins DiscoverX KINOMEscan

LRRK2(G2019S) = target: T33, LRRK2(G2019S) (Homo sapiens, UniProt Q5S007, G2019S); test: KINOMEscan binding; settings: read-out: Percent Control
T33 construct: purchased Eurofins DiscoverX KINOMEscan

FER = target: T34, FER (Homo sapiens, UniProt P16591); test: KINOMEscan binding; settings: read-out: Percent Control
T34 construct: purchased Eurofins DiscoverX KINOMEscan

[2] = target: T35, RSK1(Kin.Dom.1-N-terminal) (Homo sapiens, UniProt Q15418); test: KINOMEscan binding; settings: read-out: Percent Control
T35 construct: RSK1(Kin.Dom.1-N-terminal); purchased Eurofins DiscoverX KINOMEscan

EPHB2 = target: T36, EPHB2 (Homo sapiens, UniProt P29323); test: KINOMEscan binding; settings: read-out: Percent Control
T36 construct: purchased Eurofins DiscoverX KINOMEscan

EPHA3 = target: T37, EPHA3 (Homo sapiens, UniProt P29320); test: KINOMEscan binding; settings: read-out: Percent Control
T37 construct: purchased Eurofins DiscoverX KINOMEscan

ROCK1 = tested on: ROCK1; parameters: method as in PMID 18832915; settings: cited from earlier work
RIPK1 = target: T38, RIPK1 (Homo sapiens, UniProt Q13546); test: KINOMEscan binding; settings: read-out: Percent Control
T38 construct: purchased Eurofins DiscoverX KINOMEscan

PCTK3 = target: T39, PCTK3 (Homo sapiens, UniProt Q07002); test: KINOMEscan binding; settings: read-out: Percent Control
T39 construct: purchased Eurofins DiscoverX KINOMEscan

MLK3 = target: T40, MLK3 (Homo sapiens, UniProt Q16584); test: KINOMEscan binding; settings: read-out: Percent Control
T40 construct: purchased Eurofins DiscoverX KINOMEscan

DAPK1 = target: T41, DAPK1 (Homo sapiens, UniProt P53355); test: KINOMEscan binding; settings: read-out: Percent Control
T41 construct: purchased Eurofins DiscoverX KINOMEscan

MYLK2 = target: T42, MYLK2 (Homo sapiens, UniProt Q9H1R3); test: KINOMEscan binding; settings: read-out: Percent Control
T42 construct: purchased Eurofins DiscoverX KINOMEscan

PKNB(M.tuberculosis) = target: T43, PKNB(M.tuberculosis) (Mycobacterium tuberculosis, UniProt P9WI81); test: KINOMEscan binding; settings: read-out: Percent Control
T43 construct: purchased Eurofins DiscoverX KINOMEscan

T16 sequence (P11362 22-822): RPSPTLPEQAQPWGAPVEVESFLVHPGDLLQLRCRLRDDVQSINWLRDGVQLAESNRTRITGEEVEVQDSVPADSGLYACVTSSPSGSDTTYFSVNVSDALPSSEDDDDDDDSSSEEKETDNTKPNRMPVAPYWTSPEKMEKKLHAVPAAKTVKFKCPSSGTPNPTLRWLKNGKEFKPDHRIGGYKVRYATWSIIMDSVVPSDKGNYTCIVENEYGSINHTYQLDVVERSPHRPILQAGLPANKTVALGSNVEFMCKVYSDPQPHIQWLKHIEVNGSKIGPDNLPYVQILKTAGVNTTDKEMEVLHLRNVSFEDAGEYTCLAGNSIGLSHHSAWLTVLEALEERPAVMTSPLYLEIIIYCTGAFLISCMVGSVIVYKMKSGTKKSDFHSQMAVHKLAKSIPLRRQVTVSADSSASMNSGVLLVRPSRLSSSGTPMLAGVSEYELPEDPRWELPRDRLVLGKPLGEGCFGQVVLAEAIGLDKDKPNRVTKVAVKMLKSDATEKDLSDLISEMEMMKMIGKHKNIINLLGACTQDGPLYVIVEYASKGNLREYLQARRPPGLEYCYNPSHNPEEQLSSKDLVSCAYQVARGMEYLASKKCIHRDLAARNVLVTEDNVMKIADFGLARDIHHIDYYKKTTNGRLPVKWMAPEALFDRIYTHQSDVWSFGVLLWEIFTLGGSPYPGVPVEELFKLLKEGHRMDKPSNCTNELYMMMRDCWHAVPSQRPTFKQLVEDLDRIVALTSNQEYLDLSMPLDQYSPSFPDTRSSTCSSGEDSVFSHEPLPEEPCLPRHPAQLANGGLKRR
T21 sequence (Q9H4B4 whole entry): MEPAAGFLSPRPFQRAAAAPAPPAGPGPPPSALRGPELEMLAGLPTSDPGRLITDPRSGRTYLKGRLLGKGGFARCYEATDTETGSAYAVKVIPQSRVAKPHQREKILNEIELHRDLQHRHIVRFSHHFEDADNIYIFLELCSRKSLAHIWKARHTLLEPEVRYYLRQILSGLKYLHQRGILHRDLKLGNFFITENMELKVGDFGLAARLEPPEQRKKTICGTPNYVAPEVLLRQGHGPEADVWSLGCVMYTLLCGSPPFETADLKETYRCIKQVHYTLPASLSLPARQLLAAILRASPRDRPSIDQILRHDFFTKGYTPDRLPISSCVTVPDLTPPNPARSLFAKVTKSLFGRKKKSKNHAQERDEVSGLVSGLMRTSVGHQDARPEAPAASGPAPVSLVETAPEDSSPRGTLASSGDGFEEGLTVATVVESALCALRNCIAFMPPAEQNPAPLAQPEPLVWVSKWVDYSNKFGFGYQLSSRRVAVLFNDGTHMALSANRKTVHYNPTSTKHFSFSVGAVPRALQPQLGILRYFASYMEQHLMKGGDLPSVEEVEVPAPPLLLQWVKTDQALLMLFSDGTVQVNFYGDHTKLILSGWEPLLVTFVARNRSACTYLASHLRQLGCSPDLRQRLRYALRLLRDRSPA
T3 sequence (P35626 whole entry): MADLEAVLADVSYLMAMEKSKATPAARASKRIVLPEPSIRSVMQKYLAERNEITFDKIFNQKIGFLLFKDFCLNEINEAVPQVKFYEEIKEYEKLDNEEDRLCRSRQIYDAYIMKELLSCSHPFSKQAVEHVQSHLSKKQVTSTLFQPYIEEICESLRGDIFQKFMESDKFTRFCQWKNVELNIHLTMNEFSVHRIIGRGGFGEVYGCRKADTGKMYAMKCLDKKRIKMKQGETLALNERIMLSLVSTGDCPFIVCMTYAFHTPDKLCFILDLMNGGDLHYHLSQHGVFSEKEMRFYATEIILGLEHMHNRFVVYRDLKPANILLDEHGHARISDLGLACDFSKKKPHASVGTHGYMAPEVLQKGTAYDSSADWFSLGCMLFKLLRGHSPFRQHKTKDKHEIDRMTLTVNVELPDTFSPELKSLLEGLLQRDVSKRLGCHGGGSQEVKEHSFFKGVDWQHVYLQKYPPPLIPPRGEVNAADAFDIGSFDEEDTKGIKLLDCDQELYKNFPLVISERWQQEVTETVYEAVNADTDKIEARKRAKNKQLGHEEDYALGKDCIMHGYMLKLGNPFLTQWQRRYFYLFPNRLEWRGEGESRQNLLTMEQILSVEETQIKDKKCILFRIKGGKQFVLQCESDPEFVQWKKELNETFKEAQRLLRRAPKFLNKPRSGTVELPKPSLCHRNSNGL
T33 sequence (Q5S007 whole entry G2019S): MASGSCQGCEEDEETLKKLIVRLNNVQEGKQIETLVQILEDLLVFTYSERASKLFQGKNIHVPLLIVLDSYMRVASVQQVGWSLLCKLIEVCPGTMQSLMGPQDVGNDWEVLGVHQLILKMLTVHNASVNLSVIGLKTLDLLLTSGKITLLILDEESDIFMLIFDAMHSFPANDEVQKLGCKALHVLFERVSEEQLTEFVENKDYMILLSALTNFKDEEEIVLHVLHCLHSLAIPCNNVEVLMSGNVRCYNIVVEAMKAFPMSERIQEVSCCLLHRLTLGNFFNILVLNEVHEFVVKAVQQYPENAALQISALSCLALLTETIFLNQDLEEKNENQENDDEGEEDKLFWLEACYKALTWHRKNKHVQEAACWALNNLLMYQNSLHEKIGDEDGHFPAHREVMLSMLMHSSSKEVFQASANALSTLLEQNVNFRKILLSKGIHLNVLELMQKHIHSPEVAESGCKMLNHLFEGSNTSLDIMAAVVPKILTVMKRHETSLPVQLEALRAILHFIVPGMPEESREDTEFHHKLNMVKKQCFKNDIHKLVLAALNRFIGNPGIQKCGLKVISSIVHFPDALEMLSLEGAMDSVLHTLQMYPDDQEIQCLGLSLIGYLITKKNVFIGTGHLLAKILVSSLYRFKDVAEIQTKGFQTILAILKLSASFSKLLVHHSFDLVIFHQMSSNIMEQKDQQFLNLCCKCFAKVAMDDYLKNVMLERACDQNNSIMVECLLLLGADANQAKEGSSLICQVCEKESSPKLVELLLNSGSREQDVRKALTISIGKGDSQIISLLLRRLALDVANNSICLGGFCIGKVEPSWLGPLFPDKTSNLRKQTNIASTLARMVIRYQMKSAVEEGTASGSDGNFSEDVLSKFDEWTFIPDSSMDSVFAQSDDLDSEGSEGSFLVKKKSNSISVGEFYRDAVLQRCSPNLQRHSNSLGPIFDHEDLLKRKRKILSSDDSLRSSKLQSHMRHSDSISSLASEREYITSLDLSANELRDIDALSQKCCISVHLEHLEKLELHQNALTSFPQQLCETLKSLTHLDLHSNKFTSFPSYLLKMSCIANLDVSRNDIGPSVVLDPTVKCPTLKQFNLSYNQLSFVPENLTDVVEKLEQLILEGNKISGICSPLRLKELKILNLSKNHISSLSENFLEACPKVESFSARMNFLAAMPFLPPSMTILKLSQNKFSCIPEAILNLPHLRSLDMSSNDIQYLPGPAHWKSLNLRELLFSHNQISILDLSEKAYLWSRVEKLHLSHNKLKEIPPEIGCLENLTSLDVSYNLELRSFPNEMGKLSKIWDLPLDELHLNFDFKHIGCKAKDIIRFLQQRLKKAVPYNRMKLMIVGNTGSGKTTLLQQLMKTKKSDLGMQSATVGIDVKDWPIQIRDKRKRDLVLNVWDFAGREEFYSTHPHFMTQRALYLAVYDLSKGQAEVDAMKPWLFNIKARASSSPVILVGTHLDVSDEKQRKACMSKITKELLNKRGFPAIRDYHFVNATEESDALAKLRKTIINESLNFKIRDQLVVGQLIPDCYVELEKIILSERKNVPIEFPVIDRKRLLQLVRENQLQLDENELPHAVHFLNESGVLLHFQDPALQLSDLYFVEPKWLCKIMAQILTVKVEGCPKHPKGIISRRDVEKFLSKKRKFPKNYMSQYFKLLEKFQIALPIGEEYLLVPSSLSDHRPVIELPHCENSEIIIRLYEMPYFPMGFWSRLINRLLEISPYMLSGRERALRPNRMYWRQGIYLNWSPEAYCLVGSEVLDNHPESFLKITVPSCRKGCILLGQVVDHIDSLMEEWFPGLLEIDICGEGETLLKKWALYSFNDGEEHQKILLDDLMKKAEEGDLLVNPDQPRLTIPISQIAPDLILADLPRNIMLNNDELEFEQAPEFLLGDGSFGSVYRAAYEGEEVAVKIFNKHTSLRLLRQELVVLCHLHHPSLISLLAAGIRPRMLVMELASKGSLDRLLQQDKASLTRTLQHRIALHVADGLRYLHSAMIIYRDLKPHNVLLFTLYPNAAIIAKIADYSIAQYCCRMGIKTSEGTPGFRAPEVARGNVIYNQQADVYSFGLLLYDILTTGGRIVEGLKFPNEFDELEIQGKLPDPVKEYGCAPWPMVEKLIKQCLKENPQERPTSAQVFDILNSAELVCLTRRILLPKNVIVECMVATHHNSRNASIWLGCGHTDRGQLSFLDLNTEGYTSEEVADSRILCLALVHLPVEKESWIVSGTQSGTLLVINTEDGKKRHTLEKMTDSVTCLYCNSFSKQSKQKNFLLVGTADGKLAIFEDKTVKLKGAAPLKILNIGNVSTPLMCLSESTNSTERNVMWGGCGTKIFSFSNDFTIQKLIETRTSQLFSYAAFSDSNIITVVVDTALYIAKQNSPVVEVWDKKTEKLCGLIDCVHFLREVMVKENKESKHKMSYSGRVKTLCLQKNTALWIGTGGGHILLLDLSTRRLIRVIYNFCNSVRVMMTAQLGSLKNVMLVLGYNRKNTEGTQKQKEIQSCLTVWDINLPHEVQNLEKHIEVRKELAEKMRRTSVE
T23 sequence (P49137 whole entry): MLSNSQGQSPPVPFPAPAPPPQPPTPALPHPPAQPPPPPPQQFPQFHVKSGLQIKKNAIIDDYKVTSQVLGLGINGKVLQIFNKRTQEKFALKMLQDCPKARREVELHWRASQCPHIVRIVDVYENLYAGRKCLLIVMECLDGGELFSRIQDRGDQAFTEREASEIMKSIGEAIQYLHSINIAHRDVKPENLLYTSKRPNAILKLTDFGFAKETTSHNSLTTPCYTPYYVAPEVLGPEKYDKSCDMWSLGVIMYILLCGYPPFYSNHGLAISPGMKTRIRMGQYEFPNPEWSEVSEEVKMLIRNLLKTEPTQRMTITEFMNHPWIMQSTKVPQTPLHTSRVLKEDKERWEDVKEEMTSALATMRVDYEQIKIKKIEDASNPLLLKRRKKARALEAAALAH

Question: Which remaining binding at 10 µM (FRK) does the source give for `CC(C)NC(=O)COc1cccc(-c2nc(Nc3ccc4[nH]ncc4c3)c3ccccc3n2)c1` [KD025, 2-(3-(4-((1H-indazol-5-yl)amino)quinazolin-2-yl)phenoxy)-N-isopropylacetamide] here?
Answer: 78%

Question: What about the remaining binding at 10 µM (MEK6) of the same molecule?
Answer: 87%

Question: And the remaining binding at 10 µM (GRK3)?
Answer: 84%

Question: And the remaining binding at 10 µM (PAK2)?
Answer: 79%

Question: What about the remaining binding at 10 µM (DMPK2) of the same molecule?
Answer: 3.9%

Question: What about the remaining binding at 10 µM (LOK) of the same molecule?
Answer: 9.8%

Question: What about the remaining binding at 10 µM (SGK) of the same molecule?
Answer: 95%

Question: And the remaining binding at 10 µM (SRMS)?
Answer: 70%

Question: What about the remaining binding at 10 µM [1] of the same molecule?
Answer: 85%

Question: And the remaining binding at 10 µM (BRK)?
Answer: 86%

Question: And the remaining binding at 10 µM (PIM1)?
Answer: 100%

Question: And the remaining binding at 10 µM (HIPK2)?
Answer: 100%

Question: What about the remaining binding at 10 µM (WNK4) of the same molecule?
Answer: 100%

Question: What about the remaining binding at 10 µM (PAK7) of the same molecule?
Answer: 100%

Question: What about the remaining binding at 10 µM (ERK5) of the same molecule?
Answer: 100%

Question: What about the remaining binding at 10 µM (FGFR1) of the same molecule?
Answer: 95%

Question: And the remaining binding at 10 µM (TNIK)?
Answer: 100%

Question: And the remaining binding at 10 µM (NEK1)?
Answer: 99%

Question: And the remaining binding at 10 µM (FLT3(D835H))?
Answer: 22%

Question: What about the remaining binding at 10 µM (ACVRL1) of the same molecule?
Answer: 76%

Question: What about the remaining binding at 10 µM (PLK3) of the same molecule?
Answer: 72%

Question: What about the remaining binding at 10 µM (DDR1) of the same molecule?
Answer: 6.4%

Question: And the remaining binding at 10 µM (MAPKAPK2)?
Answer: 100%

Question: What about the remaining binding at 10 µM (CASK) of the same molecule?
Answer: 70%

Question: And the remaining binding at 10 µM (ZAK)?
Answer: 77%

Question: What about the remaining binding at 10 µM (NEK2) of the same molecule?
Answer: 83%

Question: What about the remaining binding at 10 µM (BRAF(V600E)) of the same molecule?
Answer: 91%

Question: What about the remaining binding at 10 µM (BMPR2) of the same molecule?
Answer: 72%

Question: What about the remaining binding at 10 µM (PRKD3) of the same molecule?
Answer: 100%

Question: What about the remaining binding at 10 µM (PHKG1) of the same molecule?
Answer: 87%

Question: What about the remaining binding at 10 µM (NEK4) of the same molecule?
Answer: 87%

Question: What about the remaining binding at 10 µM (TSSK3) of the same molecule?
Answer: 77%

Question: What about the remaining binding at 10 µM (LRRK2(G2019S)) of the same molecule?
Answer: 99%

Question: And the remaining binding at 10 µM (FER)?
Answer: 75%

Question: And the remaining binding at 10 µM [2]?
Answer: 7.8%

Question: What about the remaining binding at 10 µM (EPHB2) of the same molecule?
Answer: 96%

Question: And the remaining binding at 10 µM (EPHA3)?
Answer: 75%

Question: What about the IC50 (ROCK1) of the same molecule?
Answer: 24 µM

Question: What about the remaining binding at 10 µM (RIPK1) of the same molecule?
Answer: 86%

Question: What about the remaining binding at 10 µM (PCTK3) of the same molecule?
Answer: 81%

Question: And the remaining binding at 10 µM (MLK3)?
Answer: 83%

Question: And the remaining binding at 10 µM (DAPK1)?
Answer: 85%

Question: And the remaining binding at 10 µM (MYLK2)?
Answer: 87%

Question: And the remaining binding at 10 µM (PKNB(M.tuberculosis))?
Answer: 83%
